Experimental data: patent publication US9056832B2, “Pyridine compounds and the users thereof” (Purdue Pharma L.P., priority 2010, dated 2015)
Like-named read-outs stand apart in the source and are kept apart here.

Molecular target: human Nav1.7 (Homo sapiens (Human), UniProt Q15858)
Assay: FLIPR or FLIPR TETRA sodium dye assay with KCl and test article pre-incubation
Type: cell-based
Conditions: read-out: Nav1.7 IC50 (μM) ± SEM
[1] = recombinant human Nav1.7 in HEK293 cells, CoroNa Green sodium dye, veratridine + scorpion venom

human Nav1.7, sequence (Q15858 other isoform, or with tags, fused parts or gaps): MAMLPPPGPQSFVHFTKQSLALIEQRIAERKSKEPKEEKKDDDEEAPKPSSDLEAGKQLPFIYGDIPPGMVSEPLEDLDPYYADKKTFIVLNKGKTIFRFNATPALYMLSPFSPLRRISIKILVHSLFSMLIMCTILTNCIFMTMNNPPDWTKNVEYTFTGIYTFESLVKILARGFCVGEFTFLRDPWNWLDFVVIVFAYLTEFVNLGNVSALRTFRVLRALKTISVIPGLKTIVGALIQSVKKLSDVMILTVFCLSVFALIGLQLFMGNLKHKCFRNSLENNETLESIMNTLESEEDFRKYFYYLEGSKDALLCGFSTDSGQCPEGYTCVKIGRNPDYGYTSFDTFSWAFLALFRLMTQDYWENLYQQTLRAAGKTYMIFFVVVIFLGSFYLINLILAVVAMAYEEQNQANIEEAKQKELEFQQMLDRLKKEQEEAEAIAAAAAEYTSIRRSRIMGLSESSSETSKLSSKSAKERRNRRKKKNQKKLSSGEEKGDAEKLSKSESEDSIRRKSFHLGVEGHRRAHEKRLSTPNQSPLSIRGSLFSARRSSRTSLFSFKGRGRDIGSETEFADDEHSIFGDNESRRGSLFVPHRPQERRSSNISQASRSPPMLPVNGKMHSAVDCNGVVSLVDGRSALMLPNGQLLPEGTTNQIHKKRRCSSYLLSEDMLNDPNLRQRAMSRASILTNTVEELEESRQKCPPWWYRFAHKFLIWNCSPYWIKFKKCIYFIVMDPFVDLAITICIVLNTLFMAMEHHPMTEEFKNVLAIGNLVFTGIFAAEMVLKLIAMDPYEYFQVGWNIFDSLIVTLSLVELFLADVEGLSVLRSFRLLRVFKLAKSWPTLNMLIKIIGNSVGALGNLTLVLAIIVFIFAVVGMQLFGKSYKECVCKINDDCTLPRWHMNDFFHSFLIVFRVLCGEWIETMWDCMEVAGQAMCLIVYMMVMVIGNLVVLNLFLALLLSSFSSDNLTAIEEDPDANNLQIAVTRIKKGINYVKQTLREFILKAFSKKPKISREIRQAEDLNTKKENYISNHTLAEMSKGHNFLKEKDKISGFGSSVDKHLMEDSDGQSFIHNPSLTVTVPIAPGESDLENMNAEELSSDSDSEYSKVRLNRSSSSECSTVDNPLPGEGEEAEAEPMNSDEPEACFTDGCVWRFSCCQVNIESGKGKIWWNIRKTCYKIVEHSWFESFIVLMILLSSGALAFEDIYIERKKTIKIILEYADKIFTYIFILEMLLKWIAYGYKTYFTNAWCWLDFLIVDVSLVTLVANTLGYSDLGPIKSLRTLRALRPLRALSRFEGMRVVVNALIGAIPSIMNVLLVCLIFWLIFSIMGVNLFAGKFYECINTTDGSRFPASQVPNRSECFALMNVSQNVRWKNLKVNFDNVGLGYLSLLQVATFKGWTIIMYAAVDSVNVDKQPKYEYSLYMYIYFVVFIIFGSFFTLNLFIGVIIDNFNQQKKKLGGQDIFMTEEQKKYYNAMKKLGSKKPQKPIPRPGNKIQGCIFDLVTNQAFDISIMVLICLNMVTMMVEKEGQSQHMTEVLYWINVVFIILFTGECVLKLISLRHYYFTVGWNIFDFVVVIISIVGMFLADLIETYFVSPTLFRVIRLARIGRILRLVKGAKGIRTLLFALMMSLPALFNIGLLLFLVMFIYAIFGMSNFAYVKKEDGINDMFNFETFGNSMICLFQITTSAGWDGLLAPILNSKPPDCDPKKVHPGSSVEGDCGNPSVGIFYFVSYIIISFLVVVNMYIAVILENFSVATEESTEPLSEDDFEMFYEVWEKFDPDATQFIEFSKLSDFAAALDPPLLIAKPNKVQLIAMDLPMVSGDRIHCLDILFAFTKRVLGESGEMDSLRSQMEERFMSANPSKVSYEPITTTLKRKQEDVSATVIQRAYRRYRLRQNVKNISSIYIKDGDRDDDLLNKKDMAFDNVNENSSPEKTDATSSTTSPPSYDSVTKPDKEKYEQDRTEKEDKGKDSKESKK

SMILES	IC50 [µM]	IC50 [1] [µM]
N#Cc1ccc(Oc2ccc(-c3cc([C@@H](O)CO)cc(C(N)=O)n3)cc2)cc1C(F)(F)F [compound 127, (R)-6-(4-(4-cyano-3-(trifluoromethyl)phenoxy)phenyl)-4-(1,2-dihydroxyethyl) picolinamide]	1.13 ± 0.11	–
NC(=O)c1cc(O)cc(-c2ccc(Oc3ccc(F)cc3)cc2)n1 [compound 136, 6-(4-(4-fluorophenoxy)phenyl)-4-hydroxy picolinamide]	> 20	–
N#Cc1ccc(Oc2ccc(-c3cccc([C@@H](O)CO)n3)cc2)c(C(F)(F)F)c1 [compound 11, (R)-4-(4-(6-(1,2-dihydroxyethyl)pyridin-2-yl)phenoxy)-3-(trifluoromethyl) benzonitrile]	0.82 ± 0.09	–
O=C(NCCN1CCCCC1)c1cc([C@H](O)CO)cc(-c2ccc(Oc3ccc(F)cc3)cc2)n1 [compound 42, (S)-4-(1,2-dihydroxyethyl)-6-(4-(4-fluorophenoxy)phenyl)-N-(2-(piperidin-1-yl)ethyl) picolinamide]	–	1.25 ± 0.15
O=C(NC(CO)CO)c1cc(-c2ccc(Oc3ccc(F)cc3)cc2)cc(Cl)n1 [compound 125, 6-chloro-N-(1,3-dihydroxypropan-2-yl)-4-(4-(4-fluorophenoxy)phenyl)picolinamide]	–	0.77 ± 0.13
NC(=O)c1cc([C@@H](O)CO)cc(-c2cccc(Oc3ccc(F)cc3)c2)n1 [compound 142, 4-((R)-1,2-dihydroxy-ethyl)-6-[3-(4-fluoro-phenoxy)-phenyl]-pyridine-2-carboxylic acid amide]	–	5.3 ± 1.6
NC(=O)c1cc(-c2ccc(Oc3ccc(OC(F)(F)F)cc3)cc2)cc([C@@H](O)CO)n1 [compound 157, 6-((R)-1,2-Dihydroxy-ethyl)-4-[4-(4-trifluoromethoxy-phenoxy)phenyl]-pyridine-2-carboxylic acid amide]	–	0.12 ± 0.008
OC[C@H](O)c1cc(N2CCNCC2)cc(-c2ccc(Oc3ccc(F)cc3)cc2)n1 [compound 21, (R)-1-(6-(4-(4-fluorophenoxy)phenyl)-4-(piperazin-1-yl)pyridin-2-yl)ethane-1,2-diol]	–	2.97 ± 0.91
N#Cc1cc(Oc2ccc(-c3cccc(C(O)CO)n3)cc2)ccc1C(F)(F)F (stereo not drawn) [compound 12, 5-(4-(6-(1,2-dihydroxyethyl)pyridin-2-yl)phenoxy)-2-(trifluoromethyl) benzonitrile]	0.89 ± 0.02	–
CN(c1ccc(C(=O)O)cc1)c1cc(C(N)=O)nc(-c2ccc(Oc3ccc(F)cc3)cc2)c1 [compound 91, 4-((2-carbamoyl-6-(4-(4-fluorophenoxy)phenyl)pyridin-4-yl)(methyl)amino)benzoic acid]	–	> 20
N#Cc1cccc2c1ccn2-c1cc(C(=O)O)nc(-c2ccc(Oc3ccc(F)cc3)cc2)c1 [compound 101, 4-(4-cyano-1H-indol-1-yl)-6-(4-(4-fluorophenoxy)phenyl) picolinic acid]	–	0.27 ± 0.08
OC[C@@H](O)c1cccc(-c2ccc(Oc3ccc(C(F)(F)F)cc3)cc2)n1 [compound 4, (S)-1-(6-(4-(4-(trifluoromethyl)phenoxy)phenyl)pyridin-2-yl)ethane-1,2-diol]	0.12 ± 0.02	–
NC(=O)c1cc(CNCCN2CCNC2=O)cc(-c2ccc(Oc3ccc(F)cc3)cc2)n1 [compound 60, 6-(4-(4-fluorophenoxy)phenyl)-4-(((2-(2-oxoimidazolidin-1-yl)ethyl)amino)methyl)picolinamide]	–	0.16 ± 0.03
CC(=O)c1ccc(Oc2ccc(-c3cccc(C(O)CO)n3)cc2)c(C(F)(F)F)c1 (stereo not drawn) [compound 20, 1-(4-(4-(6-(1,2-dihydroxyethyl)pyridin-2-yl)phenoxy)-3-(trifluoromethyl)phenyl)ethanone]	–	2.95 ± 0.76
O=C1NCCN1CCNCc1ccnc(-c2ccc(Oc3ccc(F)cc3)cc2)c1 [compound 105, 1-(2-(((2-(4-(4-fluorophenoxy)phenyl)pyridin-4-yl)methyl)amino)ethyl) imidazolidin-2-one]	–	0.53 ± 0.08
NC(=O)c1cc(N2CCN(c3ncccn3)CC2)cc(-c2ccc(Oc3ccc(F)cc3)cc2)n1 [compound 74, 6-(4-(4-fluorophenoxy)phenyl)-4-(4-(pyrimidin-2-yl)piperazin-1-yl) picolinamide]	–	0.09 ± 0.01
O=C(O)c1cc(-c2ccc(Oc3ccc(F)cc3)cc2)cc(N(CCc2nn[nH]n2)c2ccccc2)n1 [compound 153, 4-[4-(4-Fluoro-phenoxy)-phenyl]-6-{phenyl-[2-(2H-tetrazol-5-yl)ethyl]-amino}-pyridine-2-carboxylic acid]	–	2.13 ± 0.55
NC(=O)c1cc(C2=CCNCC2)cc(-c2ccc(Oc3ccc(F)cc3)cc2)n1 [compound 122, 6-(4-(4-fluorophenoxy)phenyl)-1′,2′,3′,6′-tetrahydro-[4,4'-bipyridine]-2-carboxamide]	0.14 ± 0.03	–
N#Cc1cccc2c1ccn2-c1cc(C(N)=O)nc(-c2ccc(Oc3ccc(F)cc3)cc2)c1 [compound 99, 4-(4-cyano-1H-indol-1-yl)-6-(4-(4-fluorophenoxy)phenyl) picolinamide]	–	0.1 ± 0.03
NC(=O)c1cc(N(CCC(=O)O)c2ccccc2)cc(-c2ccc(Oc3ccc(F)cc3)cc2)n1 [compound 145, 3-({2-Carbamoyl-6-[4-(4-fluoro-phenoxy)-phenyl]-pyridin-4-yl}phenyl-amino)-propionic acid]	–	1.25 ± 0.03

SMILES	IC50 [µM]	IC50 [1] [µM]
C[C@H](Nc1cc(C(N)=O)nc(-c2ccc(Oc3ccc(F)cc3)cc2)c1)C(N)=O [compound 167, (S)-4-((1-amino-1-oxopropan-2-yl)amino)-6-(4-(4-fluorophenoxy)phenyl) picolinamide]	0.73 ± 0.1	–
N#Cc1ccc(Oc2ccc(-c3cccc(CNCCN4CCNC4=O)n3)cc2)cc1 [compound 67, 4-(4-(6-(((2-(2-oxoimidazolidin-1-yl)ethyl)amino)methyl)pyridin-2-yl)phenoxy)benzonitrile]	–	0.17 ± 0.01
NC(=O)c1cc(CN2CCN(CC(=O)O)CC2)cc(-c2ccc(Oc3ccc(F)cc3)cc2)n1 [compound 104, 2-(4-((2-carbamoyl-6-(4-(4-fluorophenoxy)phenyl)pyridine-4-yl)methyl)piperazin-1-yl) acetic acid]	–	2.7 ± 0.26
O=C(O)c1cc(-n2cc(C(=O)O)c3ccccc32)cc(-c2ccc(Oc3ccc(F)cc3)cc2)n1 [compound 93, 1-(2-carboxy-6-(4-(4-fluorophenoxy)phenyl)pyridin-4-yl)-1H-indole-3-carboxylic acid]	–	> 20
NC(=O)c1cc(N2CCC(C(N)=O)CC2)cc(-c2ccc(Oc3ccc(F)cc3)cc2)n1 [compound 56, 4-(4-carbamoylpiperidin-1-yl)-6-(4-(4-fluorophenoxy)phenyl) picolinamide]	–	0.31 ± 0.05
O=C(c1cc(N2CCNCC2)cc(-c2ccc(Oc3ccc(F)cc3)cc2)n1)N1CCNCC1 [compound 78, (6-(4-(4-fluorophenoxy)phenyl)-4-(piperazin-1-yl)pyridin-2-yl) (piperazin-1-yl) methanone]	–	10 to 20
CN(c1ccccc1)c1cc(C(N)=O)nc(-c2ccc(Oc3ccc(C(F)(F)F)cc3)cc2)c1 [compound 149, 4-(Methyl-phenyl-amino)-6-[4-(4-trifluoromethyl-phenoxy)phenyl]-pyridine-2-carboxylic acid amide]	–	10 to 20
NC(=O)c1cc(NCCN2CCS(=O)(=O)CC2)cc(-c2ccc(Oc3ccc(F)cc3)cc2)n1 [compound 48, 4-((2-(1,1-dioxidothiomorpholino)ethyl)amino)-6-(4-(4-fluorophenoxy)phenyl) picolinamide]	–	0.09 ± 0.06
NC(=O)c1cc([C@H](O)CO)cc(-c2ccc(Oc3cccc(OC(F)(F)F)c3)cc2)n1 [compound 163, 4-((S)-1,2-Dihydroxy-ethyl)-6-[4-(3-trifluoromethoxy-phenoxy)phenyl]-pyridine-2-carboxylic acid amide]	–	0.63 ± 0.07
Cc1cc(C(=O)NCCN2CCCCC2)cc(-c2ccc(Oc3ccc(F)cc3)cc2)n1 [compound 107, 2-(4-(4-fluorophenoxy)phenyl)-6-methyl-N-(2-(piperidin-1-yl)ethyl) isonicotinamide]	0.4 ± 0.12	–
N#CCCN(c1ccccc1)c1cc(-c2ccc(Oc3ccc(F)cc3)cc2)cc(C(N)=O)n1 [compound 115, 6-((2-cyanoethyl) (phenyl)amino)-4-(4-(4-fluorophenoxy)phenyl)picolinamide]	–	0.08 ± 0.03
NC(=O)c1cc([C@@H](O)CO)cc(-c2ccc(Oc3ccc(Cl)cc3F)cc2)n1 [compound 141, (R)-6-(4-(4-chloro-2-fluorophenoxy)phenyl)-4-(1,2-dihydroxyethyl) picolinamide]	–	0.07 ± 0.01
NC(=O)c1cc(N2CCN(C3=NCCCN3)CC2)cc(-c2ccc(Oc3ccc(F)cc3)cc2)n1 [compound 77, 6-(4-(4-fluorophenoxy)phenyl)-4-(4-(1,4,5,6-tetrahydropyrimidin-2-yl)piperazin-1-yl)picolinamide]	–	4.27 ± 0.69
NC(=O)c1cc(N2CCC(C(=O)O)CC2)cc(-c2ccc(Oc3ccc(F)cc3)cc2)n1 [compound 59, 1-(2-carbamoyl-6-(4-(4-fluorophenoxy)phenyl)pyridin-4-yl) piperidine-4-carboxylic acid]	2.28 ± 0.2	–
N=C(N)N1CCN(c2cc(C(N)=O)nc(-c3ccc(Oc4ccc(F)cc4)cc3)c2)CC1 [compound 80, 4-(4-carbamimidoylpiperazin-1-yl)-6-(4-(4-fluorophenoxy)phenyl)picolinamide]	–	1.3 ± 0.17
CN(c1ccccc1)c1cc(-c2ccc(Oc3ccc(C(F)(F)F)cc3)cc2)cc(C(N)=O)n1 [compound 148, 6-(Methyl-phenyl-amino)-4-[4-(4-trifluoromethyl-phenoxy)phenyl]-pyridine-2-carboxylic acid amide]	–	0.25 ± 0.08
NC(=O)c1cc(CN2CCNCC2)cc(-c2ccc(Oc3ccc(F)cc3)cc2)n1 [compound 51, 6-(4-(4-fluorophenoxy)phenyl)-4-(piperazin-1-ylmethyl)picolinamide]	–	0.18 ± 0.3
O=C(NCCN1CCCCC1)c1cc(CO)cc(-c2ccc(Oc3ccc(F)cc3)cc2)n1 [compound 79, 6-(4-(4-fluorophenoxy)phenyl)-4-(hydroxymethyl)-N-(2-(piperidin-1-yl)ethyl)picolinamide]	–	0.41 ± 0.03
NC(=O)c1cc(NCCCn2ccnc2)cc(-c2ccc(Oc3ccc(F)cc3)cc2)n1 [compound 54, 4-((3-(1H-imidazol-1-yl)propyl)amino)-6-(4-(4-fluorophenoxy)phenyl) picolinamide]	–	0.22 ± 0.06
